Assay results reported in US8455534B2, “Estrogen receptor modulators and uses thereof” (Aragon Pharmaceuticals, Inc., priority 2010, dated 2013).

Key:
[1] = target: T1, ER-α (Homo sapiens, UniProt P03372); test: Breast Cancer Cell ER-α In Cell Western Assay (SP1); format: cell-based; conditions: MCF-7 cells, SP1 antibody, 4 or 24 hr post compound addition; for Emax: MCF7, read-out: ER-α In Cell Western Assay (SP1) Max Response; for DC50: read-out: ER-α In Cell Western Assay (SP1) IC50
T1 sequence (P03372 1-595): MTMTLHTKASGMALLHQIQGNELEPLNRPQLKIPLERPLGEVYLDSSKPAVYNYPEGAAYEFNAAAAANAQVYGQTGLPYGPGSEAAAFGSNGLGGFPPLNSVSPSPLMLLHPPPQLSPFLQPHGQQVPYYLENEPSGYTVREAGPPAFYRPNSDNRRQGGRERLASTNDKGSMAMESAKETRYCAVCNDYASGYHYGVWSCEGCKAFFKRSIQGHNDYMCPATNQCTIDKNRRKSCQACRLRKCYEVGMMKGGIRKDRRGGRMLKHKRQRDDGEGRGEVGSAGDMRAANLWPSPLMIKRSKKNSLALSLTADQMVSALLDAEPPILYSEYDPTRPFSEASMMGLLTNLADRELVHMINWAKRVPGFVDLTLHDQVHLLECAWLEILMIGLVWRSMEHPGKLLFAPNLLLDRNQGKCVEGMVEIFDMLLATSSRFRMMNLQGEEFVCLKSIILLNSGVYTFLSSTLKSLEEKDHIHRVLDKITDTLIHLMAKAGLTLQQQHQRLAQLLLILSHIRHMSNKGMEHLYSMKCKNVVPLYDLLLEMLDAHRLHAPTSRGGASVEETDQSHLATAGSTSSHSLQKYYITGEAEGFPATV
Outline: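 ER-α protein levels measured by in-cell western with SP1 antibody, ratioed to DRAQ5 DNA signal and given as percent of untreated controls. Compounds added at 0.3–0.000003 μM final (eleven semilog points) to adherent MCF-7 cells in stripped serum; exposure 4 or 24 h before fixation.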

[2] = tested on: MCF-7 cells; test: Breast Cancer Cell Viability Assay (MCF-7, CellTiter-Glo); format: cell-based; conditions: 5 days' compound exposure; for IC50: Homo sapiens, MCF7, 120 h
Outline: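 MCF-7 cells, 320 per well in RPMI with 10% FBS and 20 mM HEPES, adhered overnight, then exposed 5 days to an eleven-point semilog dilution (final 0.3-0.000003 μM). CellTiter-Glo luminescence read; % viability = (sample − cell-free background)/(untreated − background) × 100.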

Row | SMILES | Emax [1] | DC50 [1] | MCF7 Viability Assay Max Response [2] | IC50 [2]
1 | CC/C(=C(/c1ccc(/C=C/C(=O)O)cc1)c1ccc2[nH]ncc2c1)c1ccccc1O [Compound 94, (E)-3-(4-((E)-2-(2-Hydroxyphenyl)-1-(1H-indazol-5-yl)but-1-en-1-yl)phenyl)acrylic acid] | ≥ 40% | ≤ 100 nM | ++ (++ = a single % value ≧ 40%) | > 100 nM
2 | CCC/C(=C(/c1ccc(/C=C/C(=O)O)cc1)c1ccc2[nH]ncc2c1)c1ccccc1 [Compound 43, (E)-3-(4-((E)-1-(1H-Indazol-5-yl)-2-phenylpent-1-en-1-yl)phenyl)acrylic acid] | ≥ 40% | ≤ 100 nM | ++ (++ = a single % value ≧ 40%) | ≤ 100 nM
3 | CC/C(=C(/c1ccc(/C=C/C(=O)O)cc1)c1ccc2[nH]ncc2c1)c1ccc(C#N)cc1Cl [Compound 140, (E)-3-(4-((E)-2-(2-Chloro-4-cyanophenyl)-1-(1H-indazol-5-yl)but-1-en-1-yl)phenyl)acrylic acid] | ≥ 40% | – | ++ (++ = a single % value ≧ 40%) | ≤ 100 nM
4 | CC/C(=C(/c1ccc(/C=C/C(=O)O)cc1)c1cc(F)c2[nH]ncc2c1)c1ccc(F)cc1Cl [Compound 65, (E)-3-(4-((E)-2-(2-Chloro-4-fluorophenyl)-1-(7-fluoro-1H-indazol-5-yl)but-1-en-1-yl)phenyl)acrylic acid] | ≥ 40% | ≤ 100 nM | ++ (++ = a single % value ≧ 40%) | ≤ 100 nM
5 | CC/C(=C(/c1ccc(/C=C/C(=O)O)cc1)c1ccc2[nH]ncc2c1)c1ccc(Cl)cc1Cl [Compound 113, (E)-3-(4-((E)-2-(2,4-Dichlorophenyl)-1-(1H-indazol-5-yl)but-1-en-1-yl)phenyl)acrylic acid] | ≥ 40% | ≤ 100 nM | ++ (++ = a single % value ≧ 40%) | ≤ 100 nM
